The values below come from article PMC5895803, “Inhibition of cancer stem cell like cells by a synthetic retinoid” (Nature Communications, 2018).

For series [1], the system named is human ovarian cancer A2780. The series can be described thus: Colony growth of A2780 TRCs in 90-Pa fibrin gels. Format: cell-based. The protocol:
(§1) Salmon fibrinogen and thrombin were purchased from Reagent Proteins (CA, USA). 3D fibrin gels were prepared as described previously[5],[6]. In brief, fibrinogen was diluted into 2 mg mL^−1 with T7 buffer (pH 7.4, 50 mM Tris, 150 mM NaCl). Cells were detached from 2D rigid dishes and cell density was adjusted to 10^4 cells per mL. Fibrinogen and cell solution mixture were made by mixing the same volume of fibrinogen solution and cell solution, resulting in 1 mg mL^−1 fibrinogen and 5000 cells per mL in the mixture fibrin gels. A volume of 50 μL cell/fibrinogen mixture was seeded into each well of 96-well plate and mixed well with pre-added 1 μL thrombin (100 U mL^−1). The cell culture plate was then incubated in 37 °C cell culture incubator for 10 min. Finally, 200 μL of DMEM medium containing 10% FBS and antibiotics was added.

The nature of series [2]: Systemic toxicity in treated mice (body weight, organs). Format: in vivo, C57BL/6 mice. From the text: Four- to six-week-old female and male C57BL/6 mice were used in mice experiment. Mice were randomized into different groups. In metastasis experiment, B16-F1 cell spheroids were selected from 3D 90-Pa fibrin gels and pipetted to single cells. These TRCs were harvested and the cell number was counted under microscopy. The cells were then suspended in PBS with appropriate cell density. Thirty thousand TRCs were intravenously injected into the tail vein of each wild-type C57BL/6 mouse. Five days later, inoculated mice were intravenous implanted with 0.022 mg kg^−1 WYC-209, 0.22 mg kg^−1 WYC-209, or 0.1% DMSO every two days. The mice were euthanized and examined for lung tumor formation at day 30. In treated TRCs injected in vivo experiments, B16-F1 cells were seeded into 3D 90-Pa fibrin gels and treated with 10 µM WYC-209 or 0.1% DMSO on day 3, then isolated treated TRCs colonies on day 5 and pipetted into single cell. 30,000 of TRCs were intravenously injected into the tail vein of each wild-type C57BL/6 mouse. No blinding was performed in the mice experiments.
Lung, liver, spleen, bone, stomach, and brain of C57BL/6 mice were fixed by 4% paraformaldehyde then were embedded in paraffin and cut to ~4 µm thick sections by Thermo FINESSE 325. Organ sections were stained by H&E and slides were evaluated for tumor formation by a veterinary pathologist blinded to sample identity.

In series [3] the test system is B16-F1 melanoma cells / TRCs. The experiment in a line: Apoptosis by Annexin-V and PI flow cytometry. To be noted: 10 μM, 24 h after treatment. Format: cell-based, murine. On the procedure:
For Annexin-V and PI staining to quantify cell apoptosis, treated TRCs were isolated from 3D fibrin gel by using 5 mg mL^−1 Dispase II (Sigma), cells were labeled with FITC-conjugated Annexin-V and PI according to the manufacturer’s instruction (Biolegend). Data were acquired on a BD Cantoll (BD biosciences) and analyzed with FlowJo software. For BrdU staining to quantify cell proliferation, cells were labeled with FITC-conjugated anti-BrdU antibody according to the manufacturer’s instruction (FITC BrdU Flow Kit, BD Biosciences) and then data were acquired on an Accuri C6 (BD Biosciences) and analyzed with BD Accuri C6 software.
Supplementary Figure 12. WYC-209 induces TRC apoptosis at 10 µM. (a)
Murine melanoma B16-F1 cells were seeded into 3D soft fibrin gels and then treated […]
The cells were collected after 24 hours and stained with FITC-conjugated Annexin-V and PI for apoptotic detection by flow cytometry. Apoptotic cells (%) = 100% - (Annexin-V-PI-) %. Mean ± s.e.m.; 3 separate experiments; *** P<0.001 (Student’s t-test). (b) Original images of flow cytometry of (a).
(§2) (1 picture or pasted object on this page, not shown here)
Supplementary Figure 38. WYC-209 induces tumor cell apoptosis. […]

The subject of series [4] is human breast cancer MCF-7. The series can be described thus: Colony growth of MCF-7 TRCs in 90-Pa fibrin gels. Format: cell-based. The protocol: as §1
Series [5] concerns unselected B16-F1 melanoma cells. The series can be described thus: Proliferation of unselected B16-F1 cells on 2D rigid dishes. To be noted: 10 μM, 48 hours. Format: cell-based, murine. The protocol: Supplementary Figure 9. WYC-209 detaches adherent melanoma cells on rigid plastic. Murine melanoma cell line B16-F1 were cultured on rigid plastics and treated with 10 μM WYC-209 and observed for 48 hours. Cell nucleus were stained with DAPI. DMSO: medium containing 0.1% DMSO. (a) Representative images of cells stained with DAPI 48 hrs after treatment. Scale bars, 500 μm. (b) Quantitation of cell numbers per view field of B16-F1 treated with WYC-209. Mean ± s.e.m.; n=5 samples; 3 independent experiments; *** P<0.001 (Student’s t-test).
as §2

“Also recorded” adds a separate entry of the source.

On to `CCOC(=O)c1cnc(C#Cc2ccc3c(c2)C(C)(C)CC[S+]3[O-])nc1` (centres unmarked) [WYC-209], for which the IC50 stood at 230 nM in series [1] (0 h, A2780, treated on day 0) and 100 nM in series [4] (MCF7, 0 h, MCF-7, treated on day 0). The inhibition at 10 µM in series [1] (A2780, 10 μM) was 100%; in series [4] (MCF7, MCF-7, 10 μM), 100%. In addition, the “Mouse body weight versus control group” value in series [2] (0.022 or 0.22 mg kg−1) is “no effects on mouse weight”. Further, in series [2] (0.022 or 0.22 mg kg−1 i.v. every two days), the “Toxic effects in mice / on organs” value is recorded as “No abnormalities in mouse organs; also recorded: no toxic effects on mouse livers; also recorded: no toxic effects on mouse stomach; also recorded: no observable toxic or necrotic effects or weight loss; also recorded: without showing apparent toxicity”. The “Apoptosis of un-selected melanoma cells or melanoma TRCs” value in series [3] is listed as ~ 95%. The “Proliferation of unselected B16-F1 cells on 2D rigid dishes” value in series [5] is listed as “completely inhibited”.
